The text below walks through data of patent US8440713B2, “[1]benzothieno[3,2-B][1]benzothiophene compound and method for producing the same, and organic electronic device using the same” (Ricoh Company, Ltd., priority 2008, dated 2013).

The nature of the series: Solubility of the precursor in chloroform, toluene and THF (solution left to stand, precipitation observed). The format is physicochemical. As to conditions: for Solubility: toluene, THF, 1% or 5% by mass, left to stand 12 hours at room temperature. As to the method:
Precursor 1 synthesized in Example 1 was dissolved respectively in chloroform, toluene and THF so as to be contained therein in concentrations of 1.0% by mass and 5.0% by mass, and then passed through a filter so as to prepare each solution.
The evaluation criteria of the solubility in Table 1 are as follows:
A: No precipitation of a solute was observed when a precursor was dissolved in each solution so as to be contained in a concentration of 5% by mass, and then left to stand for 12 hours at a room temperature.
B: No precipitation of a solute was observed when a precursor was dissolved in each solution so as to be contained in a concentration of 1% by mass, and then left to stand for 12 hours at a room temperature.
C: Precipitation of a solute was observed when a precursor was dissolved in each solution so as to be contained in a concentration of 1% by mass, and then left to stand for 12 hours at a room temperature.

Take `CCCCCCC(CCCC)C(=O)OC(CC)c1ccc(-c2ccc3c(c2)sc2c4ccc(-c5ccc(C(CC)OC(=O)C(CCCC)CCCCCC)s5)cc4sc32)s1` (stereo not shown) [Example 13]: the Solubility result is “A (No precipitation of a solute was observed when a precursor was dissolved in each solution so as to be contained in a concentration of 5% by mass, and then left to stand for 12 hours at a room temperature.)”. Besides, the “solute separation from solution” value (toluene and THF, 1.0% by mass and 5.0% by mass, filtered, left to stand over night at room temperature) is “solute separation was not observed at all in any solvent and concentration”. Regarding `CCCCCCC(CCCC)C(=O)OC(CC)c1ccc(-c2ccc3c(c2)sc2c4ccc(-c5ccc(C(CC)OC(=O)C(CCCC)CCCCCC)cc5)cc4sc32)cc1` (stereo not shown) [Example 14], the Solubility result was “A (No precipitation of a solute was observed when a precursor was dissolved in each solution so as to be contained in a concentration of 5% by mass, and then left to stand for 12 hours at a room temperature.)”.

As for `c1ccc(-c2ccc3c(c2)sc2c4ccc(-c5ccccc5)cc4sc32)cc1` [Comparative Example 1, 2,7-diphenyl [1]benzothieno[3,2-b][1]benzothiophene, reference compound], the Solubility result is “C (Precipitation of a solute was observed when a precursor was dissolved in each solution so as to be contained in a concentration of 1% by mass, and then left to stand for 12 hours at a room temperature.)”. `CCCCSC(=S)OC(CC)c1ccc(-c2ccc3c(c2)sc2c4ccc(-c5ccc(C(CC)OC(=S)SCCCC)s5)cc4sc32)s1` (stereo not shown) [Example 16]: the Solubility entry was “A (No precipitation of a solute was observed when a precursor was dissolved in each solution so as to be contained in a concentration of 5% by mass, and then left to stand for 12 hours at a room temperature.)”. With `CCCCCCC(CCCC)C(=O)OC(CC)c1ccc(-c2ccc(-c3ccc4c(c3)sc3c5ccc(-c6ccc(-c7ccc(C(CC)OC(=O)C(CCCC)CCCCCC)s7)s6)cc5sc43)s2)s1` (stereo not shown) [Example 15], the Solubility entry is “A (No precipitation of a solute was observed when a precursor was dissolved in each solution so as to be contained in a concentration of 5% by mass, and then left to stand for 12 hours at a room temperature.)”. Still for that read-out and setting: the result for `CCCCCCCCc1ccc2c(c1)sc1c3ccc(CCCCCCCC)cc3sc21` [Comparative Example 2, 2,7-dioctyl[1]benzothieno[3,2-b][1]benzothiophene, reference compound] reads “B (No precipitation of a solute was observed when a precursor was dissolved in each solution so as to be contained in a concentration of 1% by mass, and then left to stand for 12 hours at a room temperature.)”.
